Laboratory results published in PMC5175396, “Cytotoxicity of Plumbagin, Rapanone and 12 other naturally occurring Quinones from Kenyan Flora towards human carcinoma cells” (BMC Pharmacology & Toxicology, 2016).
Like-named read-outs stand apart in the source and are kept apart here.

Legend:
[1] = system: DLD-1 colorectal adenocarcinoma cell lines; test: Neutral red (NR) uptake cytotoxicity assay, DLD-1; type: cell-based, human; details: for IC50: Homo sapiens, DLD-1, neutral red assay, 72 h incubation, read-out: IC50 DLD-1; for selectivity index DLD-1: IC50 in CRL2120 normal fibroblasts divided by IC50 in DLD-1
From the text: (§1) Six human cancer cell lines and one normal cell line were used in this study. They included A549 human non-small cell lung cancer (NSCLC) cell line, obtained from the Institute for Fermentation, Osaka (IFO, Japan) and provided by Prof. Dr. Tansu Koparal (Anadolu University, Eskisehir, Turkey), SPC212 human mesothelioma cell line obtained from American Type Culture Collection (ATCC) and provided by Dr. Asuman Demiroğlu Zergeroğlu (Gebze Technical University, Kocaeli, Turkey), DLD-1 colorectal adenocarcinoma cell lines obtained from ATCC (CCL-221), Caco2 colorectal adenocarcinoma cells (ATCC, HTB-37) obtained from the ŞAP Institute of Turkey (Ankara), HepG2 hepatocarcinoma cells (ATCC, HB-8065) and MCF-7 breast adenocarcinoma cells (ATCC, HTB-22) were provided by Prof. Dr. Tansu Koparal (Anadolu University, Eskisehir, Turkey). The normal CRL2120 human skin fibroblasts were obtained from ATCC [CCD1094Sk (ATCC, CRL-2120)]. The cells were maintained as a monolayer in DMEM medium (Sigma-aldrich, Munich, Germany) medium supplemented with 10% fetal calf serum and 1% penicillin (100 U/mL)-streptomycin (100 μg/mL) in a humidified 5% CO2 atmosphere at 37 °C.
(§2) The cytotoxicity of samples was performed by NR uptake assay as previously described. This method is based on the ability of viable cells to incorporate and bind the supravital dye NR in the lysosomes. The procedure is cheaper and more sensitive than other cytotoxicity tests. […] Briefly, cells were detached by treatment with 0.25% trypsin/EDTA (Invitrogen) and an aliquot of 1 × 10^4 cells was placed in each well of a 96-well cell culture plate […]. The cells were allowed to attach overnight and subsequently treated with different concentrations of the 14 compounds. Each of the studied samples was immediately added in varying concentrations in additional 100 μL of culture medium to obtain a total volume of […]/well. After 72 h incubation in humidified 5% CO2 atmosphere at 37 °C, the medium was removed and 200 μL fresh medium containing 50 μg/mL NR was added to each well and incubation continued for an additional 3 h at 37 °C in 5% CO2 atmosphere. The dye medium was then removed and each well was then washed rapidly with 200 μL phosphate buffer saline (PBS) followed by addition of 200 μL of acetic acid-water-ethanol in water (1:49:50). The plates were kept for 15 min at room temperature to extract the dye and then shaken for a few minutes on a GFL 3012 shaker (Gesellschaft für Labortechnik mbH, Burgwedel, Germany). Absorbance was measured on ELx 808 Ultra Microplate Reader (Biotek) equipped with a 540 nm filter. Each assay was done at least three times, with three replicates each. The viability was evaluated based on a comparison with untreated cells. The IC50 values represent the sample’s concentrations required to inhibit 50% of cell proliferation and were calculated from a calibration curve by linear regression using Microsoft Excel.

[2] = system: six tested cancer cell lines (A549, SPC212, DLD-1, Caco-2, MCF-7, HepG2); test: Neutral red uptake assay, statements over the six tested cancer cell lines; type: cell-based, human; details: for IC50: Homo sapiens, bound valid for all six cancer cell lines, neutral red assay; for tested cancer cell lines in which recordable IC50 values were obtained: out of six cancer cell lines; for selectivity indexes (CRL2120 vs carcinoma cells), lower bound over the cancer cell lines: IC50 CRL2120 / IC50 cancer cell line
From the text: as §1, §2

[3] = system: A549 human non-small cell lung cancer (NSCLC) cell line; test: Neutral red (NR) uptake cytotoxicity assay, A549; type: cell-based; details: for IC50: neutral red assay, 72 h incubation; for selectivity index A549: IC50 in CRL2120 normal fibroblasts divided by IC50 in A549
From the text: as §1
as §2, with “lysosomes.” for “lysosomes. The procedure is cheaper and more sensitive than other cytotoxicity tests.”

[4] = system: HepG2 hepatocarcinoma cells; test: Neutral red (NR) uptake cytotoxicity assay, HepG2; type: cell-based, human; details: for IC50: Homo sapiens, HepG2, neutral red assay, 72 h incubation, read-out: IC50 HepG2; for selectivity index HepG2: IC50 in CRL2120 normal fibroblasts divided by IC50 in HepG2
From the text: as §1, §2

[5] = system: SPC212 human mesothelioma cell line; test: Neutral red (NR) uptake cytotoxicity assay, SPC212; type: cell-based; details: for IC50: Homo sapiens, 72 h, neutral red assay, 72 h incubation, read-out: IC50 SPC212; for selectivity index SPC212: IC50 in CRL2120 normal fibroblasts divided by IC50 in SPC212
From the text: as §1, §2

[6] = Neutral red (NR) uptake cytotoxicity assay, Caco-2; type: cell-based, human; details: human; IC50 in CRL2120 normal fibroblasts divided by IC50 in Caco-2; read-out: selectivity index Caco-2 (converted)
From the text: as §1, §2

[7] = system: Caco2 colorectal adenocarcinoma cells; test: Neutral red (NR) uptake cytotoxicity assay, Caco-2; type: cell-based, human; details: Homo sapiens, Caco-2; neutral red assay, 72 h incubation
From the text: as §1, §2

[8] = system: MCF-7 breast adenocarcinoma cells; test: Neutral red (NR) uptake cytotoxicity assay, MCF-7; type: cell-based, human; details: for IC50: neutral red assay, 72 h incubation, read-out: IC50 MCF-7; for selectivity index MCF-7: IC50 in CRL2120 normal fibroblasts divided by IC50 in MCF-7
From the text: as §1, §2

[9] = system: normal CRL2120 human skin fibroblasts; test: Neutral red (NR) uptake cytotoxicity assay, normal CRL2120 fibroblasts; type: cell-based; details: Skin fibroblast, 72 h incubation
From the text: as §1, §2

| Structure (SMILES) | IC50 [2] | tested cancer cell lines in which recordable IC50 values were obtained [2] | IC50 [1] | selectivity index DLD-1 [1] | IC50 ([3]; Homo sapiens, A549, 72 h) | selectivity index A549 [3] | IC50 [4] | selectivity index HepG2 [4] | IC50 [5] | selectivity index SPC212 [5] | selectivity ratio at 72 h [6] | IC50 [7] | IC50 ([8]; Homo sapiens, MCF7, 72 h) | selectivity index MCF-7 [8] | IC50 [8] | IC50 [9] | selectivity indexes (CRL2120 vs carcinoma cells), lower bound over the cancer cell lines [2] | IC50 [3] |
| --- | --- | --- | --- | --- | --- | --- | --- | --- | --- | --- | --- | --- | --- | --- | --- | --- | --- | --- |
| COC(=O)c1c(O)cc2c(c1C)C(=O)c1c(O)cc(O)cc1C2=O [Compound 3, 3,6,8-trihydroxy-1-methylanthraquinone-2-carboxylic acid methyl ester] | > 120 µM | – | > 122 µM | – | > 122 µM | – | > 122 µM | – | > 122 µM | – | – | > 122 µM | > 122 µM | – | – | > 122 µM | – | – |
| CCCCC=CCCCCCCCCCCCCCC1=C(OC)C(=O)C=C(OC)C1=O [Compound 12, 2,5 dimethoxy-6-(14-nonadecenyl)-1,4-benzoquinone] | > 120 µM | – | > 129 µM | – | > 129 µM | – | > 129 µM | – | > 129 µM | – | – | > 129 µM | > 129 µM | – | – | > 129 µM | – | – |
| Cc1cc(O)c2c(c1)C(=O)c1cc(O)cc(O)c1C2=O [Compound 2, emodin] | < 100 µM | – | 77.3 ± 8.77 µM | > 1.92 | 99.3 µM | > 2.23 | 71.7 ± 4.52 µM | > 2.07 | 99.3 ± 8.46 µM | > 1.49 | > 2.01 | 73.6 ± 3.52 µM | 37.6 ± 2.59 µM | > 3.94 | – | > 148 µM | above 1.49 | 66.3 ± 6.19 µM |
| CCCC/C=C\CCCCCCCCCCCCCC1=C(OC(C)=O)C(OC(C)=O)C(C)=C(OC(C)=O)C1OC(C)=O (centres unmarked) [Compound 13, 1,2,4,5-tetraacetate-3-methyl-6-(14-nonadecenyl)-cyclohexadi-2,5-diene] | < 100 µM | – | 25.1 ± 1.5 µM | 3.72 | 47.5 ± 3.56 µM | 1.96 | 18.2 ± 1.46 µM | 5.13 | 36.2 ± 3.08 µM | 2.57 | 3.78 | 24.6 ± 2.71 µM | < 10 µM | 10.08 | 9.25 ± 0.16 µM | 93.2 ± 1.17 µM | > 1.96 | – |
| COC1=CC(=O)C(O)=C(CCCCCCCC=CCCCCCCCC2=C(O)C(=O)C(C)=C(O)C2=O)C1=O [Compound 14, ardisiaquinone B] | – | 4/6 | 114 ± 3.68 µM | 0.62 | 21.7 ± 1.5 µM | 3.29 | 115 ± 4.29 µM | 0.62 | 3.14 ± 0.78 µM | 22.72 | – | > 123 µM | > 123 µM | – | – | 71.3 ± 5.23 µM | – | – |
| Cc1cc(O)c2c(c1)C(=O)c1cccc(O)c1C2=O [Compound 1, chrysophanol] | – | 2/6 | > 157 µM | – | 52.2 ± 5.51 µM | > 3.01 | > 157 µM | – | 146 ± 10.6 µM | > 1.08 | – | > 157 µM | > 157 µM | – | – | > 157 µM | – | – |

Second part, led by results:

| IC50 [2] | tested cancer cell lines in which recordable IC50 values were obtained [2] | Structure (SMILES) | IC50 [1] | selectivity index DLD-1 [1] | IC50 ([3]; Homo sapiens, A549, 72 h) | selectivity index A549 [3] | IC50 [4] | selectivity index HepG2 [4] | IC50 [5] | selectivity index SPC212 [5] | selectivity ratio at 72 h [6] | IC50 [7] | IC50 ([8]; Homo sapiens, MCF7, 72 h) | selectivity index MCF-7 [8] | IC50 [8] | IC50 [9] | selectivity indexes (CRL2120 vs carcinoma cells), lower bound over the cancer cell lines [2] | IC50 [3] |
| --- | --- | --- | --- | --- | --- | --- | --- | --- | --- | --- | --- | --- | --- | --- | --- | --- | --- | --- |
| < 100 µM | – | CCCCCCCCCCCC1=C(O)C(=O)C=C(OC)C1=O [Compound 11, 2-hydroxy-5-methoxy-3-undecyl-1,4-benzoquinone] | 45.4 ± 4.89 µM | 0.97 | 50.3 ± 2.6 µM | 0.88 | 61.3 ± 5.53 µM | 0.72 | 38.3 ± 3.23 µM | 1.15 | 1.14 | 38.9 ± 2.35 µM | 22.6 µM | 1.96 | 22.6 ± 1.57 µM | 44.2 ± 0.2 µM | – | – |
| – | 5/6 | CCCCC1=C(O)C(=O)C=C(O)C1=O [Compound 7, 2,5-dihydroxy-3-butyl-2,5-cyclohexadiene-1,4-dione] | > 204 µM | – | 68.6 ± 7.55 µM | > 2.97 | 176 ± 28.5 µM | > 1.16 | 87.9 ± 5.66 µM | > 2.32 | > 2.27 | 89.7 ± 8.8 µM | 64.6 ± 13.4 µM | > 3.16 | – | > 204 µM | – | – |
| – | 1/6 | CCCC1=C(O)C(=O)C=C(O)C1=O [Compound 6, 2,5-dihydroxy-3-propyl-2,5-cyclohexadiene-1,4-dione] | > 222 µM | – | > 222 µM | – | > 222 µM | – | > 222 µM | – | – | > 222 µM | 162 ± 11.4 µM | – | – | > 222 µM | – | – |
| – | 5/6 | CCCCCCCC1=C(O)C(=O)C=C(O)C1=O [Compound 8, 2,5-dihydroxy-3-heptyl-2,5-cyclohexadiene-1,4-dione] | > 168 µM | – | 108 ± 17.9 µM | – | 94.2 ± 2.7 µM | 1.16 | < 10 µM | – | 2.27 | 63.9 ± 5.97 µM | 38.8 ± 3.33 µM | 3.16 | – | 117 ± 1.22 µM | – | – |
| > 120 µM | – | CCC1=C(O)C(=O)C=C(O)C1=O [Compound 5, 2,5-dihydroxy-3-ethyl-2,5-cyclohexadiene-1,4-dione] | > 238 µM | – | > 238 µM | – | > 238 µM | – | > 238 µM | – | – | > 238 µM | > 238 µM | – | – | 95.5 ± 5.64 µM | – | – |
